Patent publication US8932558B2, “Multi-subunit biological complexes for treatment of plaque-associated diseases” (Plaxgen Inc, priority 2007, dated 2015)
Structures can show the parent of a compound that is named as a salt.

Assays:
[1] = test system: CP, CC, CO, and CaPPD aggregates; assay: Binding of proteins with calcium containing aggregates (any of the four); conditions: 2 μg protein, 37° C., 1 hr
Procedure: The Proteins used for binding with the aggregates are diluted first in the PBS to make 1 mg/ml concentration and then stored at −20° C. as 50 μl aliquots. These samples are then thawed on ice and centrifuged (10,000 rpm, 10 min, 4° C.) to remove any precipitation and the supernatant containing only the soluble proteins are used for binding studies. To start with, for identification of proteins binding with calcium containing aggregates, a number of proteins are screened individually with the aggregates. Binding experiment is performed in 100 μl reaction (50 μl PBS buffer and 50 μl of individual aggregates) containing 2 μg of protein and the mixtures are incubated at 37° C. for 1 hr. For control experiments, protein (2 μg) is mixed in 100 μl PBS without aggregates. After the binding, the mixture is centrifuged (2500 rpm, 2 min, 20° C.) and the pellet is washed four times with 200 μl PBST (Tween 20, 0.05%). After each wash the supernatant is discarded and the complexes are transferred to a new microfuge tube to avoid any carry-over of the proteins. […] Finally, the solublized samples are used for protein quantitation using protein estimation kit (Pierce, Ill.) and the data are used in the Microsoft Excel program to generate Graph 1 (FIG. 4). […]

[2] = target: iron-loaded abeta42 templates (Homo sapiens, UniProt P05067); assay: Binding of proteins to iron-loaded abeta42 templates; conditions: SDS-PAGE
Chain of iron-loaded abeta42 templates (P05067 672-713 limits assumed): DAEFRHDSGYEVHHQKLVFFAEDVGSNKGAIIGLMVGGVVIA
Source text: FIG. 46 illustrates an example involving the identification of proteins that bind to iron-loaded abeta42 templates. The iron-loaded abeta42 templates are combined with known and unknown cell extracts (CE) and subjected to CPA, as described herein. To determine which proteins successfully bind the templates, the final template complexes are suspended in denaturing sample buffer, boiled, and loaded into SDS-PAGE gel. The gels are then stained with coomassie blue or silver stain in order to visualize the binding proteins. […] In the negative control, no significant binding is observed when the proteins are incubated in the absence of the templates.
In experiments such as these, known and unknown cell extract proteins that are used for the complex formation with the aggregates are diluted in PBS to a 1 mg/ml concentration and stored at −70° C. as 50 μl aliquots. These samples are thawed on ice and centrifuged (13000 rpm, 15 min, 4° C.) to remove any precipitation. The supernatant containing soluble proteins is used to form complexes with the aggregates. Various proteins are screened against the iron loaded abeta42 aggregates for examining their binding. Binding experiments are performed in PBS (50 μl, pH 7.3) containing 6.0 μg of iron loaded abeta 42 aggregates and 1.0 μg of each protein. The mixture is incubated at 37° C. for 1 hr. After that, the samples are centrifuged (9000 rpm, 9 min, 15° C.) and the complexes are washed five times with 100 μl PBST (PBS containing 0.05% of Tween 20). After each wash, the supernatant is discarded and the complexes are transferred to a new tube to avoid any carry-over of the proteins. The final complexes are suspended in 20 μl of PBS to which 5.0 μl of denaturing sample solublising buffer (Bio Rad, CA, USA) is added. After boiling the samples for 10 min they are loaded into 4-20% SDS-PAGE (Cambrex Bio Sci, ME, USA). The proteins in the gels are detected using coomassie blue or silver stain (Owl silver stain, Pierce, Ill., USA). All the binding and the CPA experiments are carried out in low protein bind 1.7 ml centrifuge tubes (Effentorf, Calif.).

[3] = test system: iron loaded abeta42 aggregates mixed with CE proteins; assay: Proteolysis of amyloid plaque complexes assembled on iron loaded abeta42 aggregates; assay type: biochemical; conditions: 20 ng protease, 37° C., 1 hr
Procedure: This example illustrates the use of the invention to evaluate the proteolytic degradation of the amyloid complexes. For example, iron loaded abeta42 aggregates are mixed with CE proteins, and the resulting template complexes are treated with five different serine proteases. More specifically, nine independent reactions are carried out with each containing 5.0 μg of the iron-loaded aggregates of abeta42 and 6.0 μg of the CE proteins. After incubation and washing, the complexes are suspended in 50 μl of PBS. The nine complexes are sub-divided into two groups, with six individual complexes comprising Group I and three complexes comprising Group II. In order to interrogate the role of the plasminogen (PLG) activation system, which is implicated in the catabolism of amyloid peptides as well as the pathobiology of amyloid diseases (Melchor J P et al, 2003; Van Nostrand W E et al, 1999; Kranenburg O, 2005), the Group II complexes are subjected to another cycle of binding with both PLG (0.5 μg) and BSA (0.5 μg) proteins. After binding and washing, the PLG and BSA bound plaques complexes are suspended in 50 μl of PBS.
For proteolysis analysis, five of the six Group I template complexes are incubated with 20 ng of each protease (plasnin, chymotrypsin, trypsin, proteinase K and urokinase). The remaining complex is used as a control without protease treatment. Among three complexes of the Group II containing PLG attached to them, one is treated with u-PA (20 ng), a second is treated with t-PA (20 ng) and the third complex is used as a control without protease treatment. All these plaque complexes are incubated at 37° C. for 1 hr and after every 15 min, the tubes are gently tapped in order to encourage mixing. After washing, both the proteases-treated and control plaque complexes are suspended in 20 μl PBS. The complexes are boiled for 10 min with sample solubilizing buffer and loaded in to 4-20% gradient SDS-PAGE. Further, the gels are processed for silver staining and the results are documented for further analysis.

CP aggregates formation = assay: Screen of known drugs for prevention of CP aggregates formation; conditions: for CP aggregates formation, dose dependence: sodium phosphate dibasic and calcium chloride 4 mM each
[4] = test system: CO, lipid and cholesterol aggregates formations; assay: Effect of PGN27 on CO, lipid and cholesterol aggregates formation
CP aggregates [5] = assay: Binding of PGN27 to CP aggregates and cyclic plaque assembly (CPA)
[6] = test system: plaque induced chronic inflammation; assay: Drug treatment of mice with plaque induced chronic inflammation; conditions: 5-10 mg/kg per day orally, 8 weeks
[7] = test system: thrombus, generated from the CP-Chl aggregates; assay: Effect of PGN27 on dissolution of thrombus; conditions: 2 mM, 1 hr
[8] = test system: plaque accumulation in the heart tissues; assay: Drug treatment of asymptomatic induced atherosclerotic mice, histochemical analysis of heart tissues; conditions: 5-10 mg/kg per day orally, 8 weeks
CP aggregates [9] = assay: Binding of proteins with calcium containing aggregates; conditions: 2 μg protein, 37° C., 1 hr
Procedure: (§1) The Proteins used for binding with the aggregates are diluted first in the PBS to make 1 mg/ml concentration and then stored at −20° C. as 50 μl aliquots. These samples are then thawed on ice and centrifuged (10,000 rpm, 10 min, 4° C.) to remove any precipitation and the supernatant containing only the soluble proteins are used for binding studies. To start with, for identification of proteins binding with calcium containing aggregates, a number of proteins are screened individually with the aggregates. Binding experiment is performed in 100 μl reaction (50 μl PBS buffer and 50 μl of individual aggregates) containing 2 μg of protein and the mixtures are incubated at 37° C. for 1 hr. For control experiments, protein (2 μg) is mixed in 100 μl PBS without aggregates. After the binding, the mixture is centrifuged (2500 rpm, 2 min, 20° C.) and the pellet is washed four times with 200 μl PBST (Tween 20, 0.05%). After each wash the supernatant is discarded and the complexes are transferred to a new microfuge tube to avoid any carry-over of the proteins. The calcium containing aggregates-protein complexes are suspended in 20 μl of PBS to which 5 μl of EDTA (25 mM final concentration) is added for solubilization of the complexes. Finally, the solublized samples are used for protein quantitation using protein estimation kit (Pierce, Ill.) and the data are used in the Microsoft Excel program to generate Graph 1 (FIG. 4). All the binding experiments and subsequent CPA experiments are carried out in low protein bind 1.7 ml centrifuge tubes (Effentorf, Calif.). For all the following binding experiments the same buffer, centrifugation and washing conditions are used.

CO aggregates = assay: as above; conditions: 2 μg protein, 37° C., 1 hr
Procedure: as §1

[10] = test system: thrombus generated from the in vitro assembled plaques complexes; assay: Thrombolytic assay with PLG cascade proteins; assay type: biochemical; conditions: thrombus from cholesterol, lipids, CP and CO complexes
Procedure: To examine this, both PLG and PLG activators are used to target these clots. Thrombolytic assays are carried out in 100 μl reaction containing thrombus, generated from 100 μl of aggregates or plaque complexes, 1 μg of PLG and 20 ng of u-PA or t-PA in PBS buffer. The reactions are incubated at 37° C. for 1 hr and after every 15 min the tubes are gently tapped to mix the contents. After 1 hr incubation, 1 ml of PBS is added to all the tubes and the samples are visually examined for dissolution of the thrombus.
The thrombus generated from the cholesterol, lipids, CP, and CO complexes are incubated separately with PLG, u-PA and t-PA to examine whether these proteins individually could dissolve the clots.
This could be due to the inhibition of u-PA by the PAI-1 thereby preventing the activation of the PLG. In the next experiment, the aggregates of CP-Cholesterol, CP-Lipids, CP-Cholesterol-Lipids, Cholesterol-Lipids, CO-Cholesterol and CO-Lipids are individually used in CPA for five cycles to assemble complexes followed by their thrombus generation.
The example depicted in FIG. 18 illustrates the dissolution of thrombi by PLG and u-PA. […] Both the clots and the dissolved complexes are further examined under microscope to confirm the visual examination (FIGS. 18a, b, c and d). The thrombus formed in the urine is also dissolved by the action of PLG and u-PA.

[11] = target: T1, PLG attached to complexes of iron loaded abeta42 aggregates (Homo sapiens, UniProt P00747); assay: Activation of complex-bound PLG by u-PA or t-PA; assay type: biochemical
T1 construct: Lys-Plasminogen (PLG); purchased Enzyme Research Laboratories (IN, USA)
T1 sequence (P00747 97-810, one chain of several): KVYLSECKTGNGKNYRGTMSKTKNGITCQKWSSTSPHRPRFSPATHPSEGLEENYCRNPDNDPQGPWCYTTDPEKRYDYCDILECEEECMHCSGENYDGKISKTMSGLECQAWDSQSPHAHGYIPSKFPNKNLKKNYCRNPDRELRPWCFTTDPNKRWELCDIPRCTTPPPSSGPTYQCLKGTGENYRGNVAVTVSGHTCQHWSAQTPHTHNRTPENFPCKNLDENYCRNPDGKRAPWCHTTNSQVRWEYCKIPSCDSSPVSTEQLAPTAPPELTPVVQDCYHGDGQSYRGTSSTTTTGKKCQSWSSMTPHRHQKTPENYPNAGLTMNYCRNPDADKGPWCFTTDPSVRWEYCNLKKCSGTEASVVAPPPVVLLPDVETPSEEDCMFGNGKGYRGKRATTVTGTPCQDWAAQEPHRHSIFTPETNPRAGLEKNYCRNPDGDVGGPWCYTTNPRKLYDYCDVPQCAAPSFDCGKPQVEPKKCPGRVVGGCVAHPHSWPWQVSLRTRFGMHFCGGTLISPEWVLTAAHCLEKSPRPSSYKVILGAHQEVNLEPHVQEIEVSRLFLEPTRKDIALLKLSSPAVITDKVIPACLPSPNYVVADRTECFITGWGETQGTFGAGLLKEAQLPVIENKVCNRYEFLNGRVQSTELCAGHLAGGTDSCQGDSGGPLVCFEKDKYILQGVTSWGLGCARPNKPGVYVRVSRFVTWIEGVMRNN
Procedure: This example illustrates a method of evaluating the conformation and functionality of PLG attached to template complexes. Three groups of experiments are carried out to add the PLG at different layers of plaque complex formation. Group I includes three independent reactions containing both the PLG and BSA (0.5 μg each) that are added in the first cycle of the complex formation with the templates (5.0 μg). Group II includes three reactions to which both the PLG and BSA (0.5 μg each) are added in the first cycle of complex formation followed by another cycle of binding of the resulting complexes with the CE proteins (6.0 μg). Similarly, Group III includes three reactions each containing 5.0 μg of CE proteins and 5.0 μg of the abeta42 templates for complex formation in the first cycle of binding. The resulting complexes are subjected to another cycle of binding with both the PLG and BSA (0.5 μg each). […] After treating with the PLG activators, all the complexes are washed and finally suspended in 20 μl of PBS. After boiling the complexes for 10 min in sample solublizing buffer they are loaded into 4-20% gradient SDS-PAGE. Further, the gel is processed for silver staining and the results are documented for analysis. […]

With HIN: human insulin the “Binding with any of the CP, CC, CO, CaPPD aggregates” value [1] was “no detectable binding” and the “Binding with iron-loaded abeta42 templates” value [2] was “no detectable binding”.
For “rhHGF: recombinant human hepatocyte growth factor”, the “Binding with iron-loaded abeta42 templates” value [2] was “bind with the templates”.
With chymotrypsin the “Degradation of proteins bound to the aggregates” value [3] was “degraded”.
CB: complement factor B was tested, and the “Binding with iron-loaded abeta42 templates” value [2] was “bind with the templates”.
CD: complement factor D was tested, and the “Binding with iron-loaded abeta42 templates” value [2] was “bind with the templates”.
In the case of `CN(C)[C@@H]1C(O)=C(C(N)=O)C(=O)[C@@]2(O)C(O)=C3C(=O)c4c(O)cccc4[C@@](C)(O)[C@H]3C[C@@H]12` [PGN27, tetracycline hydrochloride], the “CP aggregates formation in the presence of antibiotic” value (CP aggregates formation; 5 mM drug, 5 mM sodium phosphate dibasic, 5 mM calcium chloride, 30 min 37° C.) is reported as “prevented the CP aggregates formation”, the “CP aggregates formation, dose dependence” value (CP aggregates formation; 0.5 and 0.25 mM drug) is reported as “CP aggregates formation occurred” and the “CP aggregates formation, dose dependence” value (CP aggregates formation; 4, 2 and 1 mM drug) is reported as “did not show the CP aggregates formation”. For the same molecule, the “Inhibition of CO, lipid and cholesterol aggregates formations” value [4] was “did not inhibit”, the “Binding with the CP aggregates (colorless to yellow)” value (CP aggregates [5]; 2 mM, 37° C., 30 min) was “specific and stable binding” and the “Effect on binding of proteins with the CP aggregates in CPA” value (CP aggregates [5]; CP-PGN27 complexes, four cycles of CPA, gel analysis) was “did not compete or affect binding of the proteins”. The “Symptoms of plaque inflammation compared to the control animal” value [6] was “reduced symptoms of plaque inflammation”, the “Dissolution of the thrombus” value [7] was “no dissolution of the thrombus” and the “Plaque accumulation in heart tissues, histochemical analysis” value [8] was “reduced plaque accumulation”.
With C3: complement factor 3 the “Binding with the CP aggregates” value (CP aggregates [9]) was “detectable binding”.
In the case of ProS: protein S, the “Binding with the CP aggregates” value (CP aggregates [9]) is reported as “detectable binding” and the “Binding with iron-loaded abeta42 templates” value [2] is reported as “bind with the templates”.
FIX: coagulation factor IX was tested, and the “Binding with the CO aggregates” value (CO aggregates) was “detected for binding”, the “Binding with the CP aggregates” value (CP aggregates [9]) was “detectable binding” and the “Binding with iron-loaded abeta42 templates” value [2] was “bind with the templates”.
PLG: plasminogen was tested, and the “Dissolution of thrombus, protein incubated separately” value [10] was “did not show any dissolution”, the “Activation of PLG bound in first cycle compared to second cycle, increasing u-PA” value ([11]; 25, 50, 100 ng u-PA) was “exhibits resistance even when incubated with increased concentrations of the u-PA” and the “Activation of PLG bound in first cycle compared to second cycle” value ([11]; u-PA (20 ng) or t-PA) was “detectable level of resistance to activation”. For the same molecule, the “Binding with the CP aggregates” value (CP aggregates [9]) was “detectable binding” and the “Binding with iron-loaded abeta42 templates” value [2] was “bind with the templates”.
trypsin was tested, and the “Degradation of proteins bound to the aggregates” value [3] was “degraded”.
